Measured values taken from patent publication US20050070510A1, “Substituted tetracycline compounds as synergistic antifungal agents” (Paratek Pharmaceuticals, Inc., priority 2001, published 2005).

system: COS-1 cells; assay: In vitro mammalian cytotoxicity assay (Resazurin)

Structure (SMILES)	In Vitro Cytotoxicity
CN(C)[C@@H]1C(O)=C(C(N)=O)C(=O)[C@@]2(C#N)C(O)=C3C(=O)c4c(O)ccc(-c5ccc(CNCc6ccccc6)cc5)c4C[C@@]3(N)C[C@@]12N [HP]	** (toxicities less than 25 μg/mL are represented by **)
CCCCOc1ccc(O)c2c1C[C@@]1(N)C[C@@]3(N)[C@H](N(C)C)C(O)=C(C(N)=O)C(=O)[C@@]3(C#N)C(O)=C1C2=O [DL]	** (toxicities less than 25 μg/mL are represented by **)
CCc1cc(CC)c2c(c1O)C(=O)C1=C(O)[C@]3(C#N)C(=O)C(C(N)=O)=C(O)[C@@H](N(C)C)[C@]3(N)C[C@]1(N)C2 [LF]	** (toxicities less than 25 μg/mL are represented by **)
CN(C)[C@@H]1C(O)=C(C(N)=O)C(=O)[C@@]2(C#N)C(O)=C3C(=O)c4c(O)cccc4/C(=C\c4ccc(Cl)cc4)[C@@]3(N)[C@H]([S+](N)[O-])[C@@]12N (stereo partly drawn) [BY]	** (toxicities less than 25 μg/mL are represented by **)
Cc1cc(C)cc(-c2ccc(O)c3c2C[C@@]2(N)C[C@@]4(N)[C@H](N(C)C)C(O)=C(C(N)=O)C(=O)[C@@]4(C#N)C(O)=C2C3=O)c1 [GD]	** (toxicities less than 25 μg/mL are represented by **)
CC(=O)C(N)c1cc(C(C)(C)C)c(O)c2c1C[C@@]1(N)C[C@@]3(N)[C@H](N(C)C)C(O)=C(C(N)=O)C(=O)[C@@]3(C#N)C(O)=C1C2=O (stereo partly drawn) [NN]	* (toxicities greater than >25 μg/ml are represented by *)
CCCN(CCC)Cc1ccc(-c2ccc(O)c3c2C[C@@]2(N)C[C@@]4(N)[C@H](N(C)C)C(O)=C(C(N)=O)C(=O)[C@@]4(C#N)C(O)=C2C3=O)c2ccccc12 [OP]	** (toxicities less than 25 μg/mL are represented by **)
Cc1sc(Nc2ccc3c(c2O)C(=O)C2=C(O)[C@]4(C#N)C(=O)C(C(N)=O)=C(O)[C@@H](N(C)C)[C@]4(N)[C@@H](O)[C@]2(N)[C@H]3O)nc1-c1ccccc1 [DW]	** (toxicities less than 25 μg/mL are represented by **)
CN(C)[C@@H]1C(O)=C(C(N)=O)C(=O)[C@@]2(C#N)C(O)=C3C(=O)c4c(O)ccc(CCc5ccccc5)c4C[C@@]3(N)C[C@@]12N [IN]	** (toxicities less than 25 μg/mL are represented by **)
CCc1ccnc(-c2ccc(O)c3c2C[C@@]2(N)C[C@@]4(N)[C@H](N(C)C)C(O)=C(C(N)=O)C(=O)[C@@]4(C#N)C(O)=C2C3=O)c1 [VB]	** (toxicities less than 25 μg/mL are represented by **)
CN(C)[C@@H]1C(O)=C(C(N)=O)C(=O)[C@@]2(C#N)C(O)=C3C(=O)c4c(O)ccc(-c5ccc(CNc6cccnc6)cc5)c4C[C@@]3(N)C[C@@]12N [UO]	** (toxicities less than 25 μg/mL are represented by **)
Cc1ccc(OC(=O)NCc2cc(N(C)C)c3c(c2O)C(=O)C2=C(O)[C@]4(C#N)C(=O)C(C(N)=O)=C(O)[C@@H](N(C)C)[C@]4(N)C[C@]2(N)C3)cc1 [MU]	** (toxicities less than 25 μg/mL are represented by **)
CN(C)c1cc(CNC(=O)NCC(C)(C)C)c(O)c2c1C[C@@]1(N)C[C@@]3(N)[C@H](N(C)C)C(O)=C(C(N)=O)C(=O)[C@@]3(C#N)C(O)=C1C2=O [MC]	* (toxicities greater than >25 μg/ml are represented by *)
CN(C)[C@@H]1C(O)=C(C(=O)NC(C)(C)C)C(=O)[C@@]2(C#N)C(O)=C3C(=O)c4c(O)cccc4C(N)[C@@]3(N)[C@H](O)[C@@]12N (stereo partly drawn) [DA]	* (toxicities greater than >25 μg/ml are represented by *)
COc1ccc(CN(C)C)cc1-c1ccc(O)c2c1C[C@@]1(N)C[C@@]3(N)[C@H](N(C)C)C(O)=C(C(N)=O)C(=O)[C@@]3(C#N)C(O)=C1C2=O [IM]	* (toxicities greater than >25 μg/ml are represented by *)
COc1cc(-c2ccc(O)c3c2C[C@@]2(N)C[C@@]4(N)[C@H](N(C)C)C(O)=C(C(N)=O)C(=O)[C@@]4(C#N)C(O)=C2C3=O)cc(OC)c1OC [OK]	** (toxicities less than 25 μg/mL are represented by **)
Cc1csc(-c2ccc(O)c3c2C[C@@]2(N)C[C@@]4(N)[C@H](N(C)C)C(O)=C(C(N)=O)C(=O)[C@@]4(C#N)C(O)=C2C3=O)c1 [GN]	** (toxicities less than 25 μg/mL are represented by **)
CN(C)[C@@H]1C(O)=C(C(N)=O)C(=O)[C@@]2(C#N)C(O)=C3C(=O)c4c(ccc(CC(=O)c5ccno5)c4O)C[C@@]3(N)C[C@@]12N [RF]	* (toxicities greater than >25 μg/ml are represented by *)
COc1cccc(C/C=C\c2ccc(O)c3c2C[C@@]2(N)C[C@@]4(N)[C@H](N(C)C)C(O)=C(C(N)=O)C(=O)[C@@]4(C#N)C(O)=C2C3=O)c1OC [HV]	** (toxicities less than 25 μg/mL are represented by **)
CCCCCc1cc(CC2C(=O)c3ccccc3C2=O)c(O)c2c1C[C@@]1(N)C[C@@]3(N)[C@H](N(C)C)C(O)=C(C(N)=O)C(=O)[C@@]3(C#N)C(O)=C1C2=O [LA]	** (toxicities less than 25 μg/mL are represented by **)
CC(=O)O[C@H]1[C@@]2(N)C(=C(O)[C@]3(C#N)C(=O)C(C(N)=O)=C(O)[C@@H](N(C)C)[C@]13N)C(=O)c1c(ccc(N=[N+]=N)c1O)[C@@H]2N [DB]	** (toxicities less than 25 μg/mL are represented by **)

Structure (SMILES)	In Vitro Cytotoxicity
CN(C)[C@@H]1C(O)=C(C(N)=O)C(=O)[C@@]2(C#N)C(O)=C3C(=O)c4c(O)c(CN)cc(-c5cccc([N+](=O)O)c5)c4C[C@@]3(N)C[C@@]12N [JP]	* (toxicities greater than >25 μg/ml are represented by *)
CC#Cc1ccc(O)c2c1CC1CC3[C@H](N(C)C)C(O)=C(C(N)=O)C(=O)[C@@]3(O)C(O)=C1C2=O (stereo partly drawn) [Compound HC, 7-(Propynyl)-Sancycline]	** (toxicities less than 25 μg/mL are represented by **)
CN(C)CC(=O)Nc1ccc2c(c1O)C(=O)C1=C(O)[C@]3(C#N)C(=O)C(C(N)=O)=C(O)[C@@H](N(C)C)[C@]3(N)C[C@]1(N)C2 [KU]	* (toxicities greater than >25 μg/ml are represented by *)
COc1ccc(-c2ccc(O)c3c2C[C@@]2(N)C[C@@]4(N)[C@H](N(C)C)C(O)=C(C(N)=O)C(=O)[C@@]4(C#N)C(O)=C2C3=O)cc1CN [QD]	* (toxicities greater than >25 μg/ml are represented by *)
Cc1ccc(C#Cc2ccc(O)c3c2C[C@@]2(N)C[C@@]4(N)[C@H](N(C)C)C(O)=C(C(N)=O)C(=O)[C@@]4(C#N)C(O)=C2C3=O)cc1 [GI]	** (toxicities less than 25 μg/mL are represented by **)
C#Cc1cc(N(C)C)c2c(c1O)C(=O)C1=C(O)[C@]3(C#N)C(=O)C(C(N)=O)=C(O)[C@@H](N(C)C)[C@]3(N)C[C@]1(N)C2 [DI]	** (toxicities less than 25 μg/mL are represented by **)
COc1ccc(CN2CCCC2)cc1-c1ccc2c(c1O)C(=O)C1=C(O)[C@]3(C#N)C(=O)C(C(N)=O)=C(O)[C@@H](N(C)C)[C@]3(N)[C@@H](O)[C@]1(N)[C@H]2N [PR]	* (toxicities greater than >25 μg/ml are represented by *)
CN(C)[C@@H]1C(O)=C(C(N)=O)C(=O)[C@@]2(C#N)C(O)=C3C(=O)c4c(O)ccc(CCC5CCCCC5)c4C[C@@]3(N)C[C@@]12N [IX]	** (toxicities less than 25 μg/mL are represented by **)
Cc1ccnc(-c2ccc(O)c3c2C[C@@]2(N)C[C@@]4(N)[C@H](N(C)C)C(O)=C(C(N)=O)C(=O)[C@@]4(C#N)C(O)=C2C3=O)c1 [VE]	** (toxicities less than 25 μg/mL are represented by **)
CN(C)[C@@H]1C(O)=C(C(N)=O)C(=O)[C@@]2(C#N)C(O)=C3C(=O)c4c(O)ccc(-c5ccccc5)c4C[C@@]3(N)C[C@@]12N [LK]	** (toxicities less than 25 μg/mL are represented by **)
CN(C)c1cc(NCc2ccc(C#N)cc2)c(O)c2c1C[C@@]1(N)C[C@@]3(N)[C@H](N(C)C)C(O)=C(C(N)=O)C(=O)[C@@]3(C#N)C(O)=C1C2=O [TU]	* (toxicities greater than >25 μg/ml are represented by *)
C=CCNc1ccc2c(c1O)C(=O)C1=C(O)[C@]3(C#N)C(=O)C(C(N)=O)=C(O)[C@@H](N(C)C)[C@]3(N)[C@@H](O)[C@]1(N)[C@H]2N [CI]	** (toxicities less than 25 μg/mL are represented by **)
CN(C)[C@@H]1C(O)=C(C(N)=O)C(=O)[C@@]2(C#N)C(O)=C3C(=O)c4c(ccc(C(C)(C)C)c4O)[C@H](N)[C@@]3(N)[C@H](O)[C@@]12N [BB]	** (toxicities less than 25 μg/mL are represented by **)
CN(C)c1cc(-c2ccc(CN3CCN(CCO)CC3)o2)c(O)c2c1C[C@H]1C[C@H]3[C@H](N(C)C)C(O)=C(C(N)=O)C(=O)[C@@]3(O)C(O)=C1C2=O [Compound UC, 2-[4-(5-Minocyclin-9-yl-furan-2-ylmethyl)-piperazin-1-yl]-ethanol]	* (toxicities greater than >25 μg/ml are represented by *)
CC(C)NCc1ccc(-c2ccc(O)c3c2[C@H](N)[C@]2(N)C(=C(O)[C@]4(C#N)C(=O)C(C(N)=O)=C(O)[C@@H](N(C)C)[C@]4(N)[C@H]2O)C3=O)o1 [QK]	* (toxicities greater than >25 μg/ml are represented by *)
COc1ccc(CNCc2ccc(-c3ccc(O)c4c3C[C@@]3(N)C[C@@]5(N)[C@H](N(C)C)C(O)=C(C(N)=O)C(=O)[C@@]5(C#N)C(O)=C3C4=O)cc2)cc1 [PI]	** (toxicities less than 25 μg/mL are represented by **)
CN(C)[C@@H]1C(O)=C(C(N)=O)C(=O)[C@@]2(C#N)C(O)=C3C(=O)c4c(O)ccc(-c5cccc(CN6CCCC6)c5)c4C[C@@]3(N)C[C@@]12N [HL]	* (toxicities greater than >25 μg/ml are represented by *)
CCCCC#Cc1ccc(O)c2c1C[C@@]1(N)C[C@@]3(N)[C@H](N(C)C)C(O)=C(C(N)=O)C(=O)[C@@]3(C#N)C(O)=C1C2=O [IG]	** (toxicities less than 25 μg/mL are represented by **)
CN(C)[C@@H]1C(O)=C(C(N)=O)C(=O)[C@@]2(C#N)C(O)=C3C(=O)c4c(ccc(-c5cc6ccccc6o5)c4O)[C@H](N)[C@@]3(N)[C@H](O)[C@@]12N [QC]	** (toxicities less than 25 μg/mL are represented by **)
CN(C)[C@@H]1C(O)=C(C(N)=O)C(=O)[C@@]2(C#N)C(O)=C3C(=O)c4c(O)ccc(CNCc5ccc[nH]5)c4C[C@@]3(N)C[C@@]12N [SI]	* (toxicities greater than >25 μg/ml are represented by *)
CCOC(=O)Nc1cc(N(C)C)c2c(c1O)C(=O)C1=C(O)[C@]3(C#N)C(=O)C(C(N)=O)=C(O)[C@@H](N(C)C)[C@]3(N)C[C@]1(N)C2 [KH]	** (toxicities less than 25 μg/mL are represented by **)
